For test [1], the target named is Induced myeloid leukemia cell differentiation protein Mcl-1 (Homo sapiens, UniProt Q07820). Kind of test: Binding affinity to Mc1-1 (unknown origin) by fluorescence polarization competition assay. For orientation: Fluorescence polarisation rises when a labelled molecule tumbles more slowly, as on binding a larger partner.
The target in the next test is Bcl-2-like protein 1 (Homo sapiens, UniProt Q07817). Kind of test: Binding affinity to Bc1-xL (unknown origin) by fluorescence polarization competition assay.
Sequence of Bcl-2-like protein 1 (Q07817 whole entry): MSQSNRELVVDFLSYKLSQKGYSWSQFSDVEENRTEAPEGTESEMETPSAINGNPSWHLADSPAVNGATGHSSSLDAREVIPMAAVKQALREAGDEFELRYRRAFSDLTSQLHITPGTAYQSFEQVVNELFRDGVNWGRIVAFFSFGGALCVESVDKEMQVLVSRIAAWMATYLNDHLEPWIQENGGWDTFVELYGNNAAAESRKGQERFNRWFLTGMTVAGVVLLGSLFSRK

Sequence of Induced myeloid leukemia cell differentiation protein Mcl-1 (Q07820 whole entry): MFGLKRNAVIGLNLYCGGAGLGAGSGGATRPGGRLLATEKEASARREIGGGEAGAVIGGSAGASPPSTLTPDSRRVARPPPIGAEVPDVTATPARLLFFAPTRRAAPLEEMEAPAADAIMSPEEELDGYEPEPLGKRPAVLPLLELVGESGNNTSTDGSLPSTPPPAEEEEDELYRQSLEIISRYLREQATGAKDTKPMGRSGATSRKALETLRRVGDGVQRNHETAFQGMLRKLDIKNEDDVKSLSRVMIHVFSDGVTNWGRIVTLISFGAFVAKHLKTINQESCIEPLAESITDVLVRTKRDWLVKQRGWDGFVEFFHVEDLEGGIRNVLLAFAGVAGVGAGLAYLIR

`Cc1ccc(-c2cn(Cc3cccc4ccccc34)c3cccc(-c4ccccc4C(=O)O)c23)cc1`: the values for the Ki (in test [1]; on Bcl-2-like protein 1 (read-out: Ki)) were 230 nM and greater than 200 µM, respectively.

Take `COc1cccc(-c2cn(Cc3cccc4ccccc34)c3cccc(-c4ccccc4C(=O)O)c23)c1`: the Ki – broadly, the equilibrium dissociation constant of an inhibitor or competing ligand from its target – in test [1] was 290 nM; on Bcl-2-like protein 1 (read-out: Ki), greater than 200 µM.

As for `CCc1ccccc1-c1cn(CCOc2cccc3ccccc23)c2cccc(-c3ccccc3C(=O)O)c12`, the Ki in test [1] is 270 nM; on Bcl-2-like protein 1 (read-out: Ki) it was greater than 200 µM.

`COc1ccccc1-c1cn(CCOc2cccc3ccccc23)c2cccc(-c3ccccc3C(=O)O)c12`: the Ki in test [1] was 170 nM; on Bcl-2-like protein 1 (read-out: Ki) it was greater than 200 µM.

Regarding `Cc1cccc(-c2cn(CCOc3cccc4ccccc34)c3cccc(-c4ccccc4C(=O)O)c23)c1C`, the results for the Ki (in test [1]; on Bcl-2-like protein 1 (read-out: Ki)) were 710 nM and greater than 200 µM, respectively.

For the molecule `O=C(O)c1ccccc1-c1cccc2c1ccn2CCCOc1cccc2ccccc12`, the Ki in test [1] was 1190 nM; on Bcl-2-like protein 1, “Not Active”.

As to `O=C(O)c1ccc(Cl)cc1-c1cccc2c1ccn2CCCOc1cccc2ccccc12`, the Ki in test [1] worked out at 220 nM; on Bcl-2-like protein 1 (read-out: Ki) it was 2.3 µM.

Consider `Cc1cccc(-c2cn(CCCOc3cccc4ccccc34)c3cccc(-c4ccccc4C(=O)O)c23)c1`, for which the Ki in test [1] is 1330 nM; on Bcl-2-like protein 1 (read-out: Ki) it was greater than 200 µM.

Turning to `Cc1ccccc1-c1cn(CCOc2cccc3ccccc23)c2cccc(-c3ccccc3C(=O)O)c12`, the Ki in test [1] was 170 nM; at Bcl-2-like protein 1 (read-out: Ki), greater than 200 µM.

Turning to `Cc1cccc(-c2cn(Cc3cccc4ccccc34)c3cccc(-c4ccccc4C(=O)O)c23)c1`, the values for the Ki (in test [1]; on Bcl-2-like protein 1 (read-out: Ki)) were 960 nM and greater than 200 µM, respectively.

Take `O=C(O)c1ccccc1-c1cccc2c1c(-c1cccc(Cl)c1)cn2CCOc1cccc2ccccc12`: the values for the Ki (in test [1]; on Bcl-2-like protein 1 (read-out: Ki)) were 360 nM and 2.3 µM, respectively.

`Cc1ccccc1-c1cn(Cc2cccc3ccccc23)c2cccc(-c3ccccc3C(=O)O)c12`: the results for the Ki (in test [1]; at Bcl-2-like protein 1 (read-out: Ki)) were 70 nM and greater than 200 µM, respectively.

On to `Cc1cccc(-c2cn(CCOc3cccc4ccccc34)c3cccc(-c4ccccc4C(=O)O)c23)c1`, for which the Ki in test [1] was 920 nM; on Bcl-2-like protein 1 (read-out: Ki) it was greater than 200 µM.

Consider `O=C(O)c1ccccc1-c1cccc2c1c(-c1ccccc1)cn2Cc1cccc2ccccc12`, for which the values for the Ki (in test [1]; on Bcl-2-like protein 1 (read-out: Ki)) were 120 nM and greater than 200 µM, respectively.

`O=C(O)c1ccccc1-c1cccc2c1c(-c1cccc(Cl)c1)cn2Cc1cccc2ccccc12`: the figures for the Ki (in test [1]; on Bcl-2-like protein 1 (read-out: Ki)) were 450 nM and greater than 200 µM, respectively.

On to `COc1ccccc1-c1cn(Cc2cccc3ccccc23)c2cccc(-c3ccccc3C(=O)O)c12`, for which the Ki in test [1] was 270 nM; at Bcl-2-like protein 1 (read-out: Ki) it was greater than 200 µM.

As to `O=C(O)c1ccccc1-c1cccc2c1c(-c1cccc(C(F)(F)F)c1)cn2CCOc1cccc2ccccc12`, the Ki in test [1] was 30 nM; at Bcl-2-like protein 1 (read-out: Ki) it was 6.1 µM.

Consider `CC(C)c1ccccc1-c1cn(CCOc2cccc3ccccc23)c2cccc(-c3ccccc3C(=O)O)c12`, for which the Ki was 170 nM in test [1] and greater than 200 µM on Bcl-2-like protein 1 (read-out: Ki).

`O=C(O)c1ccccc1-c1cccc2c1c(-c1cccc(C(F)(F)F)c1)cn2Cc1cccc2ccccc12`: the Ki in test [1] is 190 nM; at Bcl-2-like protein 1 (read-out: Ki), greater than 200 µM.

As for `Cc1ccc(-c2cn(CCOc3cccc4ccccc34)c3cccc(-c4ccccc4C(=O)O)c23)cc1`, the figures for the Ki (in test [1]; on Bcl-2-like protein 1 (read-out: Ki)) were 250 nM and greater than 200 µM, respectively.

On to `O=C(O)c1ccccc1-c1cccc2c1c(-c1cccc(C(F)(F)F)c1)cn2CCCOc1cccc2ccccc12`, for which the results for the Ki (in test [1]; on Bcl-2-like protein 1 (read-out: Ki)) were 280 nM and 3.1 µM, respectively.

Take `Cc1cc2c(C(C)C)c(O)c(O)c(C=O)c2c(O)c1-c1c(C)cc2c(C(C)C)c(O)c(O)c(C=O)c2c1O` [GOSSYPOL]: the Ki on Bcl-2-like protein 1 (read-out: Ki) was found to be 0.61 µM.

Turning to `CC1(C)CCC(CN2CCN(c3ccc(C(=O)NS(=O)(=O)c4ccc(NCC5CCOCC5)c([N+](=O)[O-])c4)c(Oc4cnc5[nH]ccc5c4)c3)CC2)=C(c2ccc(Cl)cc2)C1` [VENETOCLAX], the Ki in test [1] was greater than 200000 nM.
